The target in experiment [1] is recombinant human Mcl-1 (Mcl-1/Bim interaction) (Homo sapiens (Human), UniProt Q07820). The experiment can be described thus: biochemical. The class given is binding. As to conditions: cell free Mcl-1:Bim TR-FRET; read-out: Mcl-1 HTRF IC50. On the technique in general: Time-resolved FRET reads energy transfer from a long-lived donor to a nearby acceptor.
The test system of experiment [2] is OPM-2 human multiple myeloma cell line. Briefly: Cell Viability Assay (OPM-2 10 FBS), CellTiter-Glo. The class given is cell-based. As to conditions: read-out: OPM-2 10% FBS IC50 IP; OPM-2 cells, 10% FBS, 16 h, CellTiter-Glo. The protocol:
Cell Viability Assay (OPM-2 10 FBS)
The human multiple myeloma cell line, OPM-2, was cultured in complete growth medium containing RPMI 1640 and 10% fetal bovine serum (FBS). Cells were seeded into 384-well plates at 3000 cells/well density in complete growth medium containing 10% FBS, and incubated for 16 h with serially diluted test compounds in a 37° C. incubator with 5% CO2. Cell viability was tested using CellTiter-Glo® assay (Promega, Madison, Wis.) according to the manufacturer recommendations. Luminescence was determined using an EnVision® Multilabel plate reader 25 min after the addition of detection reagent. IC50 values were then calculated with Xlfit using a logistical 4-parameter fit model in GraphPad Prism (GraphPad Software, San Diego, Calif.) or in Genedata Screener® (Genedata, Basel, Switzerland).
On the technique in general: ATP-based viability assays read luminescence as a measure of living cells.

recombinant human Mcl-1 (Mcl-1/Bim interaction), sequence (Q07820 171-327): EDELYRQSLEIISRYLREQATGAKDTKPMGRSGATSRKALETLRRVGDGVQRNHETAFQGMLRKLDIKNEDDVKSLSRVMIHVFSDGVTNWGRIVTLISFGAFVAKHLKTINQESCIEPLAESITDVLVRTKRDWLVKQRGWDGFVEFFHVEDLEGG

For orientation: IC50 means the concentration at which inhibition is half-maximal. As for `CO[C@@]1(CN2CCN3CCN(S(C)(=O)=O)C[C@@H]3C2)/C=C/C[C@H](C)[C@@H](C)S(=O)(=O)NC(=O)c2ccc3c(c2)N(C[C@@H]2CC[C@H]21)C[C@@]1(CCCc2cc(Cl)ccc21)CO3` (stereo in doubt) [Example 228], the IC50 in experiment [1] turned out to be 0.2 nM. Consider `C[C@@H]1[C@@H](C)C/C=C/[C@@](O)(CNC(C)(C)C)[C@@H]2CC[C@H]2CN2C[C@@]3(CCCc4cc(Cl)ccc43)COc3ccc(cc32)C(=O)NS1(=O)=O` [Example 125, (1S,3′R,6′R,7′S,8′E,11′S,12′R)-7′-((tert-butylamino)methyl)-6-chloro-7′-hydroxy-11′,12′-dimethyl-3,4-dihydro-2H,15′H-spiro[naphthalene-1,22′-[20]oxa[13]thia[1,14]diazatetracyclo[14.7.2.0˜3,6˜.0˜19,24˜]pentacosa[8,16,18,24]tetraen]-15′-one 13′,13′-dioxide], for which the IC50 in experiment [1] came out at 6.1 nM.

Consider `C[C@@H]1[C@@H](C)C/C=C/C(O)(CN2CCN3CCCC[C@@H]3C2)[C@@H]2CC[C@H]2CN2C[C@@]3(CCCc4cc(Cl)ccc43)COc3ccc(cc32)C(=O)NS1(=O)=O` (single isomer, unassigned) [Example 243], for which the IC50 in experiment [1] was 0.078 nM. The same measure, in the same setting: as for `C[C@@H]1[C@@H](C)C/C=C/[C@]2(CN(Cc3ccccc3)CCO2)[C@@H]2CC[C@H]2CN2C[C@@]3(CCCc4cc(Cl)ccc43)COc3ccc(cc32)C(=O)NS1(=O)=O` [Example 138, (1S,3′R,6′R,7′R,8′E,11′S,12′R)-4″-benzyl-6-chloro-11′,12′-dimethyl-3,4-dihydro-2H,15′H-dispiro[naphthalene-1,22′-[20]oxa[13]thia[1,14]diazatetracyclo[14.7.2.0˜3,6˜.0˜19,24˜]pentacosa[8,16,18,24]tetraene-7′,2″-[1,4]oxazinan]-15′-one 13′,13′-dioxide], the figure is 26.7 nM; as for `C[C@@H]1[C@@H](C)C/C=C/C(O)(CN2CCN3CCCC[C@@H]3C2)[C@@H]2CC[C@H]2CN2C[C@@]3(CCCc4cc(Cl)ccc43)COc3ccc(cc32)C(=O)NS1(=O)=O` (single isomer, unassigned) [Example 242], 0.249 nM. On the same count and under the same terms, for `COCC[C@@H]1[C@@H](C)C/C=C/[C@@](CN2CCN(C(C)C)[C@H](C)C2)(OC)[C@@H]2CC[C@H]2CN2C[C@@]3(CCCc4cc(Cl)ccc43)COc3ccc(cc32)C(=O)NS1(=O)=O` [Example 12, (1S,3′R,6′R,7′R,8′E,11′S,12′R)-6-chloro-7′-methoxy-12′-(2-methoxyethyl)-11′-methyl-7′-(((3R)-3-methyl-4-(1-methylethyl)-1-piperazinyl)methyl)-3,4-dihydro-2H,15′H-spiro[naphthalene-1,22′-[20]oxa[13]thia[1,14]diazatetracyclo[14.7.2.0˜3,6˜.0˜19,24˜]pentacosa[8,16,18,24]tetraen]-15′-one 13′,13′-dioxide] the value was 0.072 nM. The same measure, in the same setting: for `CO[C@]1(CN2CCN3CCN(C(C)=O)C[C@@H]3C2)/C=C/C[C@H](C)[C@@H](C)S(=O)(=O)NC(=O)c2ccc3c(c2)N(C[C@@H]2CC[C@H]21)C[C@@]1(CCCc2cc(Cl)ccc21)CO3` (single isomer, unassigned) [Example 229] the value was 0.619 nM; for `CO[C@]1(CN2CCN3CCS(=O)(=O)C[C@@H]3C2)/C=C/C[C@H](C)[C@@H](C)S(=O)(=O)NC(=O)c2ccc3c(c2)N(C[C@@H]2CC[C@H]21)C[C@@]1(CCCc2cc(Cl)ccc21)CO3` (stereo in doubt) [Example 219], 0.073 nM. As for `CC(C)N(CCO)C[C@]1(O)/C=C/C[C@H](C)[C@@H](C)S(=O)(=O)NC(=O)c2ccc3c(c2)N(C[C@@H]2CC[C@H]21)C[C@@]1(CCCc2cc(Cl)ccc21)CO3` [Example 126, (1S,3′R,6′R,7′S,8′E,11′S,12′R)-6-chloro-7′-hydroxy-7′-(((2-hydroxyethyl)(1-methylethyl)amino)methyl)-11′,12′-dimethyl-3,4-dihydro-2H,15′H-spiro[naphthalene-1,22′-[20]oxa[13]thia[1,14]diazatetracyclo[14.7.2.0˜3,6˜.0˜19,24˜]pentacosa[8,16,18,24]tetraen]-15′-one 13′,13′-dioxide], in experiment [1], the IC50 is 0.627 nM.

As to `CO[C@@]1(CN2CCN3CCN(C(C)=O)C[C@@H]3C2)/C=C/C[C@H](C)[C@@H](C)S(=O)(=O)NC(=O)c2ccc3c(c2)N(C[C@@H]2CC[C@H]21)C[C@@]1(CCCc2cc(Cl)ccc21)CO3` (single isomer, unassigned) [Example 225], the IC50 in experiment [1] came to 0.087 nM.

On to `CO[C@]1(CN2CCN3CCS(=O)(=O)C[C@@H]3C2)/C=C/C[C@H](C)[C@@H](C)S(=O)(=O)NC(=O)c2ccc3c(c2)N(C[C@@H]2CC[C@H]21)C[C@@]1(CCCc2cc(Cl)ccc21)CO3` (stereo in doubt) [Example 215], for which the IC50 in experiment [1] was 0.149 nM. Still for that read-out and setting: for `CCO[C@]1(CN2CCN3CCCC[C@@H]3C2)/C=C/C[C@H](C)[C@@H](CCOC)S(=O)(=O)NC(=O)c2ccc3c(c2)N(C[C@@H]2CC[C@H]21)C[C@@]1(CCCc2cc(Cl)ccc21)CO3` [Example 15, (1S,3′R,6′R,7′R,8′E,11′S,12′R)-6-chloro-7′-ethoxy-12′-(2-methoxyethyl)-11′-methyl-7′-((9aR)-octahydro-2H-pyrido[1,2-a]pyrazin-2-ylmethyl)-3,4-dihydro-2H,15′H-spiro[naphthalene-1,22′-[20]oxa[13]thia[1,14]diazatetracyclo[14.7.2.0˜3,6˜.0˜19,24˜]pentacosa[8,16,18,24]tetraen]-15′-one 13′,13′-dioxide] the value was 0.119 nM.

With `CO[C@@]1(CN2CCN3CCN(C(C)=O)C[C@@H]3C2)/C=C/C[C@H](C)[C@@H](C)S(=O)(=O)NC(=O)c2ccc3c(c2)N(C[C@@H]2CC[C@H]21)C[C@@]1(CCCc2cc(Cl)ccc21)CO3` (stereo in doubt) [Example 214], in experiment [1], the IC50 was 0.071 nM. Same read-out and setting: for `CCO[C@]1(CN2CCN(C(C)(C)C)CC2)/C=C/C[C@H](C)[C@@H](C)S(=O)(=O)NC(=O)c2ccc3c(c2)N(C[C@@H]2CC[C@H]21)C[C@@]1(CCCc2cc(Cl)ccc21)CO3` [Example 6, (1S,3′R,6′R,7′R,8′E,11′S,12′R)-7′-((4-tert-butyl-1-piperazinyl)methyl)-6-chloro-7′-ethoxy-11′,12′-dimethyl-3,4-dihydro-2H,15′H-spiro[naphthalene-1,22′-[20]oxa[13]thia[1,14]diazatetracyclo[14.7.2.0˜3,6˜.0˜19,24˜]pentacosa[8,16,18,24]tetraen]-15′-one 13′,13′-dioxide] the value was 0.079 nM; for `C[C@@H]1[C@@H](C)C/C=C/[C@@](O)(CN2CCOC[C@@H]2Cn2ccnc2)[C@@H]2CC[C@H]2CN2C[C@@]3(CCCc4cc(Cl)ccc43)COc3ccc(cc32)C(=O)NS1(=O)=O` [Example 100, (1S,3′R,6′R,7′S,8′E,11′S,12′R)-6-chloro-7′-hydroxy-7′-(((3S)-3-(1H-imidazol-1-ylmethyl)-4-morpholinyl)methyl)-11′,12′-dimethyl-3,4-dihydro-2H,15′H-spiro[naphthalene-1,22′-[20]oxa[13]thia[1,14]diazatetracyclo[14.7.2.0˜3,6˜.0˜19,24˜]pentacosa[8,16,18,24]tetraen]-15′-one 13′,13′-dioxide], 0.188 nM.

Take `CO[C@]1(CN2CCN3CCS(=O)(=O)C[C@@H]3C2)/C=C/C[C@H](C)[C@@H](C)S(=O)(=O)NC(=O)c2ccc3c(c2)N(C[C@@H]2CC[C@H]21)C[C@@]1(CCCc2cc(Cl)ccc21)CO3` (single isomer, unassigned) [Example 220]: in experiment [2], the IC50 turned out to be 42 nM.

The values above are taken from patent US11224601B1, “Compounds that inhibits MCL-1 protein” (priority 2017, dated 2022).
